The values below are quoted from earlier work in the CATMoS acute toxicity set (Mansouri et al. 2021).

Each structure is given as a SMILES string. Values joined by “and” are separate entries in the source; they are usually repeats but may differ in a detail not shown here. Equal values may be shown once.

The data set can be described thus: rat acute oral toxicity. Particulars: in vivo.
Take `COP(=S)(OC)Oc1ccc(Sc2ccc(OP(=S)(OC)OC)c(C)c2)cc1C`: the LD50 (in general, the dose expected to kill half of the subjects tested) was 250 mg/kg.
Turning to `CCCCN(CCCC)CCCC`, the LD50 was 114 mg/kg.
For `CN1CCN(CCC=C2c3ccccc3Sc3ccc(S(=O)(=O)N(C)C)cc32)CC1`, the LD50 is 720 mg/kg.
Take `CC(NC(C)(C)C)C(=O)c1cccc(Cl)c1` (configuration not stated): the LD50 is 482 mg/kg and 600 mg/kg.
As for `CC1COC(c2ccccc2)O1` (configuration not stated), the LD50 was 3000 mg/kg.
`CSP(SC)SC`: the LD50 is 105 mg/kg.
Regarding `COc1ccc2c(c1OC)C(=O)O[C@@H]2[C@H]1c2c(cc3c(c2OC)OCO3)CCN1C`, the LD50 was 1520 mg/kg.
In the case of `CC(C)=CCC(CCN(C)C)(C(N)=O)c1cccc2ccccc12` (configuration not stated), the LD50 is 143 mg/kg.
Regarding `C=CCSSCC=C`, the LD50 is 260 mg/kg.
On to `CC[C@H](C)N`, for which the LD50 was 380 mg/kg.
For `CNC(=O)Nc1ccccc1`, the LD50 was 3440 mg/kg.
As for `CCOC(=O)c1cnn(C)c1-n1c(CC)nc2ccccc2c1=O`, the LD50 was 1820 mg/kg.
Consider `CCOC(=O)C=CC(=O)OCC`, for which the LD50 is 3200 mg/kg.
With `ClC(Cl)(Cl)Sn1cccn1`, the LD50 is 350 mg/kg.
`O=C(O)C1CSCN1` (configuration not stated): the LD50 is 875 mg/kg.
Regarding `Cc1cc(O)ccc1S(C)(=O)=O`, the LD50 is 7000 mg/kg.
Take `CC(=O)CCC1C(=O)N(c2ccccc2)N(c2ccccc2)C1=O`: the LD50 was 720 mg/kg.
Take `COc1ccc2c(c1)OC(C)(C)C(c1ccccc1)=C2c1ccc(OCCN2CCCC2)cc1`: the LD50 was 150 mg/kg.
As to `Cc1cccc(C)c1N(Cn1cccn1)C(=O)CCl`, the median lethal dose (LD50) was 1000 mg/kg.
On to `Cc1cc(CC(=O)O)n(C)c1C(=O)c1ccc(Cl)cc1`, for which the LD50 was 27 mg/kg.
Regarding `CCN(CC)CCOC(=O)C(O)(c1ccccc1)c1ccccc1`, the LD50 was 184 mg/kg.
For `Clc1cc(Cl)cc(Cl)c1`, the LD50 is 800 mg/kg.
As to `COC(=O)C1=C(C)NC(C)=C(C(=O)OCC(C)C)C1c1ccccc1[N+](=O)[O-]` (configuration not stated), the LD50 was 1260 mg/kg.
Turning to `COc1ccc(Cl)cc1N/C(=N/C1CCCCC1)c1ccccc1`, the LD50 is 625 mg/kg.
For the molecule `CN1CCN(C2=Nc3cc(Cl)ccc3Nc3ccccc32)CC1`, the LD50 is 251 mg/kg.
For `CC1=CCC(C(C)C)C=C1` (configuration not stated), the median lethal dose (LD50) is 5700 mg/kg.
Consider `CCc1nn(-c2ccc(F)cc2)c2c(=O)[nH]ccc12`, for which the LD50 is 375 mg/kg.
In the case of `C=CC(=O)OCC(CO)(COC(=O)C=C)COC(=O)C=C`, the LD50 was 1830 mg/kg.
As to `C=C(Cl)C(=O)OC`, the LD50 is 68 mg/kg.
Turning to `CCCOCCOC(C)=O`, the LD50 is 9460 mg/kg.
As to `CCC(=O)Nc1cccc(OC(=O)NC)c1`, the LD50 is 1000 mg/kg.
Turning to `CC1=CCC(=C(C)C)CC1`, the LD50 is 4390 mg/kg.
As for `CC(=O)CCCCCCCC(=O)O`, the LD50 is 3100 mg/kg.
Take `CC(C)(C)NC(=O)[C@H]1CC[C@H]2[C@@H]3CC[C@H]4NC(=O)C=C[C@]4(C)[C@H]3CC[C@]12C`: the LD50 was 418 mg/kg.
As to `C=CCC`, the LD50 was 4000 mg/kg.
Take `COc1ccccc1NC(=O)C(N=Nc1ccc(-c2ccc(N=NC(C(C)=O)C(=O)Nc3ccccc3OC)c(Cl)c2)cc1Cl)C(C)=O` (configuration not stated): the LD50 is 2230 mg/kg.
As to `CNC(=O)Oc1cccc2c1OC(C)(C)O2`, the LD50 is 40 mg/kg.
As to `COC(=O)c1c(Cl)c(Cl)c(C(=O)OC)c(Cl)c1Cl`, the LD50 is 3000 mg/kg.
On to `CCN(CC)CCC(=O)N1c2ccccc2Sc2ccc(C(F)(F)F)cc21`, for which the LD50 is 860 mg/kg.
Take `O=C(Cc1ccc2c(c1)OCc1ccccc1C2=O)OCC(O)CO` (configuration not stated): the LD50 was 95 mg/kg.
In the case of `COP(=S)(OC)SCn1nc(Cl)c(C)cc1=O`, the LD50 is 65 mg/kg.
As to `NC1(C(=O)O)CCCC1`, the LD50 was 290 mg/kg and 260 mg/kg.
For the molecule `Cc1c(-c2ccccc2)oc2c(C(=O)O)cccc2c1=O`, the LD50 is 1660 mg/kg.
On to `[N-]=[N+]=CC(=O)OC[C@H](N)C(=O)O`, for which the LD50 was 170 mg/kg.
For `CCC(=O)CC(C)CC` (configuration not stated), the LD50 is 3500 mg/kg.
Regarding `CCCC(=O)c1ccc2c(c1)N(CCCN1CCN(C)CC1)c1ccccc1S2`, the LD50 is 413 mg/kg.
Regarding `CCOC(=S)C=Cc1ccc2c(c1)OCO2`, the LD50 was 940 mg/kg.
As for `CCOP(=S)(OCC)Oc1cc(C)nc2ccccc12`, the LD50 was 50 mg/kg.
For `CCCCCCOc1ccc(NNC=O)cc1`, the LD50 was 717 mg/kg.
Take `CC(C)=C[C@@H]1[C@@H](C(=O)OCc2coc(Cc3ccccc3)c2)C1(C)C`: the LD50 is 1240 mg/kg.
As for `COP(=S)(OC)Oc1ccc(Cl)c([N+](=O)[O-])c1`, the median lethal dose (LD50) was 500 mg/kg.
Turning to `c1cn[nH]c1`, the LD50 was 1010 mg/kg.
Take `CCCCOCC(O)COc1ccccc1` (configuration not stated): the LD50 is 2370 mg/kg.
Take `CCSc1nnc(C(C)(C)C)c(=O)n1N`: the LD50 was 599 mg/kg.
With `Cc1[nH]nc(Cl)c1[N+](=O)[O-]`, the LD50 was 350 mg/kg.
On to `COc1ccc2c(c1)c(CC(=O)OCC(C(=O)O)c1ccccc1)c(C)n2C(=O)c1ccc(Cl)cc1` (configuration not stated), for which the LD50 is 140 mg/kg.
`Cc1ncc(CSSCc2cnc(C)c(O)c2CCl)c(CCl)c1O`: the LD50 was 4300 mg/kg.
On to `CCCCCCc1ccc(C(C[n+]2ccccc2)OCC(CC)CCCC)cc1` (configuration not stated), for which the LD50 was 250 mg/kg.
For the molecule `CCCCCCOCCOC(=O)CCCCC(=O)OCCOCCCCCC`, the LD50 was 4290 mg/kg.
For `C[C@]12CCC(=O)C=C1CC[C@@H]1[C@@H]2[C@@H](O)C[C@@]2(C)[C@H]1CC[C@]2(O)C(=O)COP(=O)(O)O`, the LD50 was 6100 mg/kg.
As to `Cc1ccc(C)[nH]1`, the LD50 was 59 mg/kg.
In the case of `CC(C)NC(=N)NC(=N)Nc1ccc(Cl)cc1`, the LD50 is 58 mg/kg.
